This is an account of results in patent US11649255B2, “Indazoles as hematopoietic progenitor kinase 1 (HPK1) inhibitors and methods using same” (1st Biotherapeutics, Inc., priority 2020, dated 2023).

SMILES strings stand for the structures. Like-named read-outs stand apart in the source and are kept apart here.

For one assay, the target named is recombinant human HPK1 (Homo sapiens (Human), UniProt Q92918). Nature of the assay: HPK1 kinase assay (ADP-Glo). The conditions noted are these: 25 μM ATP, MBP substrate. Format: biochemical. The method in brief: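 Activity was read as ADP formed, detected by ADP-Glo luminescence after the reaction of 5 ng recombinant human HPK1 with MBP and ATP (stocks 0.5 μg/μl and 25 μM) for 40 min at 30 °C. Buffer was Tris pH 7.5 with MgCl2, BSA and DTT, with compound in 0.5% DMSO. IC50 came from inhibition curves.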
In general terms: ADP-Glo first removes unused ATP, then detects ADP through luciferase.

The test system of assay [1] is human peripheral blood pan T cells. Nature of the assay: IFNγ and IL-2 analysis of human peripheral pan T cells. It is filed as cell-based. The conditions noted are these: T-cell, CD3/CD28 bead stimulation, 100 nM Prostaglandin E2, 24 hr. The method, then:
IFNγ and IL-2 Analysis of Human Peripheral Pan T Cells
Human peripheral blood pan T cells were purchased from STEMCELL™ Technologies Inc. Human peripheral blood pan T cells were thawed and suspended in DMEM media (10% FBS and 10 Penicillin/Streptomycin). 8×10^4 T cells were seeded in 96-well plate and incubated with various concentration of compounds and 100 nM Prostaglandin E2 for 1 hr. T cells were stimulated with Dynabeads Human T-Activator CD3/CD28 (Life Technologies) at a 1:3 cells: beads ratio. […] Data were analyzed with an MESO Quickplex SQ120 (Mesoscale Discovery).
In Table 3, the values represent + for >1000 nM, ++ 200-1,000 nM, +++ for <200 nM and − for not determined.

The mark [2] stands for this setting: IFNγ secretion, read-out: IFNγ (EC50).
The mark [3] stands for this setting: IL-2 secretion, read-out: IL-2 (EC50).

Chain of recombinant human HPK1 (Q92918 whole entry): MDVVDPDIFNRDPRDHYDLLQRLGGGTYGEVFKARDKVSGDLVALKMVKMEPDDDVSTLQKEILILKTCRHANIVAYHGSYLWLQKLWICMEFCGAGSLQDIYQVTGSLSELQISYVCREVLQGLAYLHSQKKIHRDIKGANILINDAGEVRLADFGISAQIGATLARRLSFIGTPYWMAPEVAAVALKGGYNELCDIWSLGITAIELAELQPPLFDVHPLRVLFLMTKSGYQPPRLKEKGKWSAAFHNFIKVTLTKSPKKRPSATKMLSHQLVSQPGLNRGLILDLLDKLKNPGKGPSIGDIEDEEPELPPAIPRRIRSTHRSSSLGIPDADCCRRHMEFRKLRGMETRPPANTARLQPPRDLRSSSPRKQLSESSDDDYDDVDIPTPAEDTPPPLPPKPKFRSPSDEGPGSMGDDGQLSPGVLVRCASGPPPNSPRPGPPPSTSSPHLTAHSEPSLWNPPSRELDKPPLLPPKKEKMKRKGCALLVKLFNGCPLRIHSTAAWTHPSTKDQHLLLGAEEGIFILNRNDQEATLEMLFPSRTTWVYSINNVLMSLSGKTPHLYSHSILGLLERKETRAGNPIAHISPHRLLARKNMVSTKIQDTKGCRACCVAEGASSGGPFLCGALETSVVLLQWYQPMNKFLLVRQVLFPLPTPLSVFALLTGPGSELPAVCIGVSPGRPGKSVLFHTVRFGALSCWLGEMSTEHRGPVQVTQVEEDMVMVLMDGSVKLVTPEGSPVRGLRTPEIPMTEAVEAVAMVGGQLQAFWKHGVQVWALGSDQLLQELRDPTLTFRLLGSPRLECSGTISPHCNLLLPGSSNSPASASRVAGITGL

In the case of `Cc1c(F)c(Cl)c(-c2ccn3nc(NC(=O)[C@@H]4C[C@@H]4F)cc3c2)c2cn[nH]c12` [Example 579, (1S,2S)-N-(5-(5-chloro-6-fluoro-7-methyl-1H-indazol-4-yl)pyrazolo[1,5-a]pyridin-2-yl)-2-fluorocyclopropane-1-carboxamide], on recombinant human HPK1, the 50% inhibitory concentration (IC50) is less than 100 nM. For the same compound, the concentration giving a half-maximal response (EC50) in assay [1] (setting [2]) was less than 200 nM; in assay [1] (setting [3]), more than 1000 nM.

In the case of `Cc1c(F)c(N(C)CCO)c2[nH]ncc2c1-c1ccn2nc(NC(=O)[C@@H]3C[C@@H]3F)cc2c1` [Example 557, (1S,2S)-2-fluoro-N-(5-(6-fluoro-7-((2-hydroxyethyl)(methyl)amino)-5-methyl-1H-indazol-4-yl)pyrazolo[1,5-a]pyridin-2-yl)cyclopropane-1-carboxamide], the IC50 at recombinant human HPK1 was less than 100 nM. In addition, the EC50 is less than 200 nM in assay [1] (setting [2]) and 200 to 1000 nM in assay [1] (setting [3]).

With `CSc1c(F)c(N(C)C)c2[nH]ncc2c1-c1ccc2nc(NC(=O)[C@@H]3C[C@@H]3F)sc2n1` [Example 194, (1S,2S)-N-(5-(7-(dimethylamino)-6-fluoro-5-(methylthio)-1H-indazol-4-yl)thiazolo[5,4-b]pyridin-2-yl)-2-fluorocyclopropane-1-carboxamide], the IC50 on recombinant human HPK1 is less than 100 nM. In addition, the concentration for a half-maximal effect (EC50) in assay [1] (setting [2]) was in the range of 200 to 1000 nM.

As for `CCOc1c(F)c(C)c(-c2ccc3nc(NC(=O)[C@@H]4C[C@@H]4F)sc3n2)c2cn[nH]c12` [Example 175, (1S,2S)-N-(5-(7-ethoxy-6-fluoro-5-methyl-1H-indazol-4-yl)thiazolo[5,4-b]pyridin-2-yl)-2-fluorocyclopropane-1-carboxamide], the IC50 at recombinant human HPK1 was less than 100 nM. Also, in assay [1] (setting [2]), the concentration giving a half-maximal response (EC50) was less than 200 nM.

For the compound `Cc1c(F)c(C(=O)N(C)C)c2[nH]ncc2c1-c1ccc2nc(NC(=O)[C@@H]3C[C@@H]3F)cn2c1` [Example 329, 6-fluoro-4-(2-((1S,2S)-2-fluorocyclopropane-1-carboxamido)imidazo[1,2-a]pyridin-6-yl)-N,N,5-trimethyl-1H-indazole-7-carboxamide], the IC50 at recombinant human HPK1 is less than 100 nM. Moreover, the 50% effective concentration (EC50) in assay [1] (setting [2]) and in assay [1] (setting [3]) was 200 to 1000 nM in each case.

Turning to `CCc1c(F)c(SCC(=O)NC)c2[nH]ncc2c1-c1ccn2nc(NC(=O)[C@@H]3C[C@@H]3F)cc2c1` [Example 521, (1S,2S)-N-(5-(5-ethyl-6-fluoro-7-((2-(methylamino)-2-oxoethyl)thio)-1H-indazol-4-yl)pyrazolo[1,5-a]pyridin-2-yl)-2-fluorocyclopropane-1-carboxamide bis(2,2,2-trifluoroacetate)], the half-inhibitory concentration (IC50) on recombinant human HPK1 was less than 100 nM. Further, the half-maximal effective concentration (EC50) in assay [1] (setting [2]) and in assay [1] (setting [3]) was less than 200 nM throughout.

As for `CCc1c(F)c(SCC#N)c2[nH]ncc2c1-c1ccn2nc(NC(=O)[C@@H]3C[C@@H]3F)cc2c1` [Example 588, (1S,2S)-N-(5-(7-((cyanomethyl)thio)-5-ethyl-6-fluoro-1H-indazol-4-yl)pyrazolo[1,5-a]pyridin-2-yl)-2-fluorocyclopropane-1-carboxamide], the IC50 on recombinant human HPK1 was less than 100 nM. Also, the EC50 in assay [1] (setting [2]) and in assay [1] (setting [3]) was less than 200 nM in each case.

As for `Cc1c(F)c(SCCO)c2[nH]ncc2c1-c1ccn2nc(NC(=O)[C@@H]3C[C@@H]3F)cc2c1` [Example 523, (1S,2S)-2-fluoro-N-(5-(6-fluoro-7-((2-hydroxyethyl)thio)-5-methyl-1H-indazol-4-yl)pyrazolo[1,5-a]pyridin-2-yl)cyclopropane-1-carboxamide], on recombinant human HPK1, the IC50 is less than 100 nM. The EC50 in assay [1] (setting [2]) was less than 200 nM.

On to `CCOc1c(F)c(CC)c(-c2ccc3nc(NC(=O)[C@@H]4C[C@@H]4F)sc3c2)c2cn[nH]c12` [Example 107, (1S,2S)-N-(6-(7-ethoxy-5-ethyl-6-fluoro-1H-indazol-4-yl)benzo[d]thiazol-2-yl)-2-fluorocyclopropane-1-carboxamide], for which the IC50 at recombinant human HPK1 was less than 100 nM. In assay [1] (setting [2]), the concentration for a half-maximal effect (EC50) was 200 to 1000 nM.

As for `CSc1c(F)c(SC)c2[nH]ncc2c1-c1ccc2nc(NC(=O)[C@@H]3C[C@@H]3F)sc2n1` [Example 170, (1S,2S)-2-fluoro-N-(5-(6-fluoro-5,7-bis(methylthio)-1H-indazol-4-yl)thiazolo[5,4-b]pyridin-2-yl)cyclopropane-1-carboxamide], the IC50 on recombinant human HPK1 was less than 100 nM. Also, the EC50 was 200 to 1000 nM in assay [1] (setting [2]) and more than 1000 nM in assay [1] (setting [3]).

Take `CCc1c(F)cc2[nH]ncc2c1-c1ccc2nc(NC(=O)[C@@H]3C[C@@H]3F)sc2n1` [Example 152, (1S,2S)—N-(5-(5-ethyl-6-fluoro-1H-indazol-4-yl)thiazolo[5,4-b]pyridin-2-yl)-2-fluorocyclopropane-1-carboxamide]: the IC50 at recombinant human HPK1 is less than 100 nM. Moreover, the concentration for a half-maximal effect (EC50) in assay [1] (setting [2]) and in assay [1] (setting [3]) was 200 to 1000 nM in each case.

With `CN(C)C(=O)c1c(F)c(Cl)c(-c2ccc3nc(NC(=O)[C@@H]4C[C@@H]4F)cn3c2)c2cn[nH]c12` [Example 320, 5-chloro-6-fluoro-4-(2-((1S,2S)-2-fluorocyclopropane-1-carboxamido)imidazo[1,2-a]pyridin-6-yl)-N,N-dimethyl-1H-indazole-7-carboxamide], the IC50 on recombinant human HPK1 is less than 100 nM. For the same compound, the concentration giving a half-maximal response (EC50) in assay [1] (setting [2]) was 200 to 1000 nM.

For the compound `CN(C)C(=O)c1c(F)c(Cl)c(-c2ccc3nc(NC(=O)[C@@H]4C[C@@H]4F)sc3c2)c2cn[nH]c12` [Example 125, 5-chloro-6-fluoro-4-(2-((1S,2S)-2-fluorocyclopropane-1-carboxamido)benzo[d]thiazol-6-yl)-N,N-dimethyl-1H-indazole-7-carboxamide], the IC50 on recombinant human HPK1 is less than 100 nM. For the same compound, the EC50 in assay [1] (setting [2]) was less than 200 nM.

In the case of `CCNc1c(F)c(CC)c(-c2ccn3nc(NC(=O)[C@@H]4C[C@@H]4F)cc3c2)c2cn[nH]c12` [Example 524, (1S,2S)-N-(5-(5-ethyl-7-(ethylamino)-6-fluoro-1H-indazol-4-yl)pyrazolo[1,5-a]pyridin-2-yl)-2-fluorocyclopropane-1-carboxamide], on recombinant human HPK1, the IC50 was less than 100 nM. The EC50 in assay [1] (setting [2]) and in assay [1] (setting [3]) was less than 200 nM throughout.

In the case of `CN(C)c1c(F)c(Cl)c(-c2ccn3nc(NC(=O)[C@@H]4C[C@@H]4F)cc3c2)c2cn[nH]c12` [Example 484, (1S,2S)-N-(5-(5-chloro-7-(dimethylamino)-6-fluoro-1H-indazol-4-yl)pyrazolo[1,5-a]pyridin-2-yl)-2-fluorocyclopropane-1-carboxamide], the IC50 at recombinant human HPK1 was less than 100 nM. Also, the half-maximal effective concentration (EC50) in assay [1] (setting [2]) was less than 200 nM; in assay [1] (setting [3]), 200 to 1000 nM.

With `CN(C)C(=O)c1c(F)c(Cl)c(-c2ccc3nc(NC(=O)[C@@H]4C[C@@H]4F)sc3n2)c2cn[nH]c12` [Example 193, 5-chloro-6-fluoro-4-(2-((1S,2S)-2-fluorocyclopropane-1-carboxamido)thiazolo[5,4-b]pyridin-5-yl)-N,N-dimethyl-1H-indazole-7-carboxamide], the IC50 on recombinant human HPK1 was less than 100 nM. Also, the EC50 in assay [1] (setting [2]) was 200 to 1000 nM; in assay [1] (setting [3]), more than 1000 nM.

`Cc1c(F)c(C(=O)N(C)C)c2[nH]ncc2c1-c1ccc2nc(NC(=O)[C@@H]3C[C@@H]3F)sc2c1` [Example 134, 6-fluoro-4-(2-((1S,2S)-2-fluorocyclopropane-1-carboxamido)benzo[d]thiazol-6-yl)-N,N,5-trimethyl-1H-indazole-7-carboxamide]: at recombinant human HPK1, the IC50 is less than 100 nM. Further, the figures for the half-maximal effective concentration (EC50) in assay [1] (setting [2]) and in assay [1] (setting [3]) were less than 200 nM and more than 1000 nM, respectively.

For orientation: IC50 means the concentration needed to halve the response being measured. The term EC50 denotes the concentration that produces a half-maximal response.
